The target in assay [1] is T1, 3-hydroxy-3-methylglutaryl-coenzyme A reductase (Rattus norvegicus, UniProt P51639).
T1 sequence (P51639 whole entry): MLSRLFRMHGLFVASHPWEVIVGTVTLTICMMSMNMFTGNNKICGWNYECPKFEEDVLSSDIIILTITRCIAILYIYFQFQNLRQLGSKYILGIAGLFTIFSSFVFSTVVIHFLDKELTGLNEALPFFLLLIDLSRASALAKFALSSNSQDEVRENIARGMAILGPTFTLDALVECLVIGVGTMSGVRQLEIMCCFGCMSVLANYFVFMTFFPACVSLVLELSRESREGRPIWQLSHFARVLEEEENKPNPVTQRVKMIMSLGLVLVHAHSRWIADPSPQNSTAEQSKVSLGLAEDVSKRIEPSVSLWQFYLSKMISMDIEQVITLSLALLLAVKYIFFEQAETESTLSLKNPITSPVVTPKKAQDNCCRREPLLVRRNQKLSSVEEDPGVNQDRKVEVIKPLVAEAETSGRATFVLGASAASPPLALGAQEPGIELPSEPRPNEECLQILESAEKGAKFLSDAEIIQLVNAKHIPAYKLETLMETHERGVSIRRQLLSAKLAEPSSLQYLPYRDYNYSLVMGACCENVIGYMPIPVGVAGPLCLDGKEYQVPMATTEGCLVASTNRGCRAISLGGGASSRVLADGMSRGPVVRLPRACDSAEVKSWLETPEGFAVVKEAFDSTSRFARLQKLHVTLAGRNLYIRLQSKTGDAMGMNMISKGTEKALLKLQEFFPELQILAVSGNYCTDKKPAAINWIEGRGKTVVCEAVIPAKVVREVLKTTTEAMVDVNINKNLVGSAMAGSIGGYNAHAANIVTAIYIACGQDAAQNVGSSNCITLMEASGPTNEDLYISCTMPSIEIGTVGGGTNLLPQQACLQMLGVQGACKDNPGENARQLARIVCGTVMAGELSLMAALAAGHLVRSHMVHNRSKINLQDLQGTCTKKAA
As to the kind of experiment: Inhibitory activity against partially purified rat liver HMG-CoA reductase in vitro; 4.1-22.

The subject of assay [2] is HepG2. As to the kind of experiment: Tested for ability to inhibit incorporation of [14C]acetate into cholesterol in cultured human hepatoma (HEP-G2) cells; 0.31-2.4. It is filed as functional, cell-based.
Assay [3] addresses T1, 3-hydroxy-3-methylglutaryl-coenzyme A reductase. As to the kind of experiment: Inhibitory activity against partially purified rat liver HMG-CoA reductase in vitro; 0.12-0.21.
Assay [4] has the same target. As to the kind of experiment: Inhibitory activity against partially purified rat liver HMG-CoA reductase in vitro; 0.038-0.18.
The subject of assay [5] is HepG2. As to the kind of experiment: Tested for ability to inhibit incorporation of [14C]acetate into cholesterol in cultured human hepatoma (HEP-G2) cells; 0.70-1.4. Format: functional, cell-based.
The target of assay [6] is T1, 3-hydroxy-3-methylglutaryl-coenzyme A reductase. As to the kind of experiment: Inhibitory activity against partially purified rat liver HMG-CoA reductase in vitro; 0.026-0.34.
Assay [7] relates to HepG2. As to the kind of experiment: Tested for ability to inhibit incorporation of [14C]acetate into cholesterol in cultured human hepatoma (HEP-G2) cells; 0.16-0.68. It is filed as functional, cell-based.
The target of assay [8] is T1, 3-hydroxy-3-methylglutaryl-coenzyme A reductase. As to the kind of experiment: Inhibitory activity against partially purified rat liver HMG-CoA reductase in vitro; 0.0040-0.053.
In assay [9] the test system is HepG2. As to the kind of experiment: Tested for ability to inhibit incorporation of [14C]acetate into cholesterol in cultured human hepatoma (HEP-G2) cells; 0.046-0.17. It is filed as functional, cell-based.
Assay [10] addresses T1, 3-hydroxy-3-methylglutaryl-coenzyme A reductase. As to the kind of experiment: Inhibitory activity against partially purified rat liver HMG-CoA reductase in vitro; 0.17-0.61.
Assay [11] relates to HepG2. As to the kind of experiment: Tested for ability to inhibit incorporation of [14C]acetate into cholesterol in cultured human hepatoma (HEP-G2) cells; 2.9-4.6. It is filed as functional, cell-based.
For assay [12], the target named is T1, 3-hydroxy-3-methylglutaryl-coenzyme A reductase. As to the kind of experiment: Inhibitory activity against partially purified rat liver HMG-CoA reductase in vitro; 0.0073-0.017.
Assay [13] concerns HepG2. As to the kind of experiment: Tested for ability to inhibit incorporation of [14C]acetate into cholesterol in cultured human hepatoma (HEP-G2) cells; 0.019-0.14. It is filed as functional, cell-based.
Assay [14] addresses T1, 3-hydroxy-3-methylglutaryl-coenzyme A reductase. As to the kind of experiment: Inhibitory activity against partially purified rat liver HMG-CoA reductase in vitro; 0.047-0.098.
Assay [15] relates to HepG2. As to the kind of experiment: Tested for ability to inhibit incorporation of [14C]acetate into cholesterol in cultured human hepatoma (HEP-G2) cells; 0.11-0.27. Format: functional, cell-based.
Assay [16] concerns HepG2. As to the kind of experiment: Tested for ability to inhibit incorporation of [14C]acetate into cholesterol in cultured human hepatoma (HEP-G2) cells; 0.15-0.33. It is filed as functional, cell-based.
Assay [17] has as its target T1, 3-hydroxy-3-methylglutaryl-coenzyme A reductase. As to the kind of experiment: Inhibitory activity against partially purified rat liver HMG-CoA reductase in vitro; 0.021-0.036.
Assay [18] relates to HepG2. As to the kind of experiment: Tested for ability to inhibit incorporation of [14C]acetate into cholesterol in cultured human hepatoma (HEP-G2) cells; 0.051-0.12. It is filed as functional, cell-based.
For assay [19], the target named is T1, 3-hydroxy-3-methylglutaryl-coenzyme A reductase. As to the kind of experiment: Inhibitory activity against partially purified rat liver HMG-CoA reductase in vitro; 0.015-0.51.
For assay [20], the system named is HepG2. As to the kind of experiment: Tested for ability to inhibit incorporation of [14C]acetate into cholesterol in cultured human hepatoma (HEP-G2) cells; 0.15-1.7. Format: functional, cell-based.
Assay [21] concerns HepG2. As to the kind of experiment: Tested for ability to inhibit incorporation of [14C]acetate into cholesterol in cultured human hepatoma (HEP-G2) cells; 0.73-91. It is filed as functional, cell-based.
For assay [22], the target named is T1, 3-hydroxy-3-methylglutaryl-coenzyme A reductase. As to the kind of experiment: Inhibitory activity against partially purified rat liver HMG-CoA reductase in vitro; 0.73-10.
For assay [23] the target is unchanged. As to the kind of experiment: Inhibitory activity against partially purified rat liver HMG-CoA reductase in vitro; 1.7-2.6.
The target is the same in assay [24]. As to the kind of experiment: Inhibitory activity against partially purified rat liver HMG-CoA reductase in vitro; 0.23-0.71.
The test system of assay [25] is HepG2. As to the kind of experiment: Tested for ability to inhibit incorporation of [14C]acetate into cholesterol in cultured human hepatoma (HEP-G2) cells; 0.061-0.10. It is filed as functional, cell-based.
The target of assay [26] is T1, 3-hydroxy-3-methylglutaryl-coenzyme A reductase. As to the kind of experiment: Inhibitory activity against partially purified rat liver HMG-CoA reductase in vitro; 3.1-9.1.

Structures are written as SMILES.

By IC50 is commonly meant the concentration at which inhibition is half-maximal. Read a low IC50 as higher potency. As for `O=C(O)C[C@H](O)C[C@H](O)/C=C/c1c2c(nn1-c1ccc(F)cc1)-c1ccccc1CC2`, it took 9.4 µM to reach half-maximal inhibition in assay [1] (IC50).
As for `O=C(O)C[C@H](O)C[C@H](O)/C=C/c1c2c(nn1-c1ccc(F)cc1)C(CCCc1ccccc1)CCC2` (some centres not stated), the concentration for half-maximal inhibition (IC50) in assay [2] was 0.87 µM; in assay [3], 0.16 µM.
On to `O=C(O)C[C@H](O)C[C@H](O)/C=C/c1c2c(nn1-c1ccc(F)cc1)C(C/C=C/c1ccccc1)CCC2` (some centres not stated), for which the results for the half-inhibitory concentration (IC50) in [4] and in assay [5] were 0.082 µM and 1 µM, respectively.
As for `O=C(O)C[C@H](O)C[C@H](O)/C=C/c1c2c(nn1-c1ccc(F)cc1)C(Cc1ccccc1Cl)CCC2` (some centres not stated), the IC50 amounted to 0.095 µM in assay [6] and 0.33 µM in [7].
In the case of `CC(C)(C)c1ccc(CC2CCCc3c2nn(-c2ccc(F)cc2)c3/C=C/[C@@H](O)C[C@@H](O)CC(=O)O)cc1` (some centres not stated), the values for the IC50 in assay [8] and in assay [9] were 0.014 µM and 0.088 µM, respectively.
Turning to `COc1ccc(CC2CCCc3c2nn(-c2ccc(F)cc2)c3/C=C/[C@@H](O)C[C@@H](O)CC(=O)O)cc1OC` (some centres not stated), the IC50 worked out at 0.32 µM in assay [10] and 3.6 µM in assay [11].
Regarding `CC[C@H](C)C(=O)O[C@H]1C[C@@H](C)C=C2C=C[C@H](C)[C@H](CC[C@@H]3C[C@@H](O)CC(=O)O3)C21` (some centres not stated), the results for the IC50 in assay [12] and in [13] were 0.0092 µM and 0.05 µM, respectively.
Consider `O=C(O)C[C@H](O)C[C@H](O)/C=C/c1c2c(nn1-c1ccc(F)cc1)C(Cc1ccccc1)CCC2` (some centres not stated), for which the IC50 in assay [14] is 0.068 µM; in assay [15], 0.17 µM.
For `CC(C)c1ccc(CC2CCCc3c2nn(-c2ccc(F)cc2)c3/C=C/[C@@H](O)C[C@@H](O)CC(=O)O)cc1` (some centres not stated), the IC50 amounted to 0.23 µM in assay [16] and 0.04 µM in assay [8].
For the compound `Cc1ccc(CC2CCCc3c2nn(-c2ccc(F)cc2)c3/C=C/[C@@H](O)C[C@@H](O)CC(=O)O)cc1` (some centres not stated), the IC50 worked out at 0.028 µM in assay [17] and 0.078 µM in [18].
As for `COc1ccc(CC2CCCc3c2nn(-c2ccc(F)cc2)c3/C=C/[C@@H](O)C[C@@H](O)CC(=O)O)cc1` (some centres not stated), the IC50 in assay [19] worked out at 0.028 µM; in [20], 0.5 µM.
In the case of `O=C(O)C[C@H](O)C[C@H](O)/C=C/c1c2c(nn1-c1ccc(F)cc1)C(c1ccccc1)CCC2` (some centres not stated), the IC50 in assay [21] worked out at 8.1 µM; in [22] it was 2.8 µM.
`CC1CCCc2c1nn(-c1ccc(F)cc1)c2/C=C/[C@@H](O)C[C@@H](O)CC(=O)O` (some centres not stated) registered an IC50 in assay [23] of 2.1 µM.
For `CC[C@H](C)C(=O)O[C@H]1C[C@@H](C)C=C2C=C[C@H](C)[C@H](CC[C@@H]3C[C@@H](O)CC(=O)O3)[C@H]21` [LOVASTATIN], the concentration for half-maximal inhibition (IC50) in [24] was determined as 0.4 µM; in assay [25], 0.079 µM.
With `O=C(O)C[C@H](O)C[C@H](O)/C=C/c1c2c(nn1-c1ccc(F)cc1)CCCC2`, the half-maximal inhibitory concentration (IC50) in assay [26] was 5.3 µM.

The record behind these values is ChEMBL document CHEMBL1126959, “HMG-CoA reductase inhibitors: design, synthesis, and biological activity of tetrahydroindazole-substituted 3,5-dihydroxy-6-heptenoic acid sodium salts” (J Med Chem, 1993).
